Experiments:
liver slices = assay: Influence of bile acids on methylsterols and dimethylsterols in liver slices; format: cell-based; settings: bile acids 160 µM for 9-h, n=2 for UDCA, CDCA, DCA, n=3 for CA and LCA, ratio to campesterol
Method: (§1) Cells were washed three times with ice cold PBS (pH 7.4) (once with 2 mg/ml BSA and twice with PBS alone). Epicoprostanol (1 µg in 50 µl of hexane) was added as internal standard to each sample. Sterols were extracted in hexane/isopropanol (3:2 v/v; two times with 4 ml). After drying under nitrogen and alkaline hydrolysis (1 N NaOH in 80% ethanol, 1.5 h at 70°C), the sterols were extracted with cyclohexane (two times with 3 ml). After drying under nitrogen, sterols were converted to their trimethylsilyl (TMS) derivatives by adding 100 µl bis(trimethylsilyl)trifluoracetamide (Pierce)/n-decane (1:1; v/v) and heating for 1 h at 70°C in a conical glass tube. This solution (1-2 µl) was used for gas-chromatography/mass-spectrometry (GC/MS). Rat testes (0.05-0.15 g) were homogenized manually, and lipids were extracted in hexane/isopropanol (3:2 v/v; two times with 4 ml). The extracts were deproteinized with acetone (3 ml) and processed as described above. The observed sterol levels in testis were normalized to correspond to 0.1 g of tissue (wet weight).
(§2) Gas-chromatography was done in the splitless mode with temperature programming as follows: 150°C for 1 min, followed by 20°C/min up to 260°C and 10°C/min up to 280°C (hold for 15 min). Mass spectral data were collected either in the full-scan mode (m/z 50-550) or by selective ion monitoring (SIM). For SIM analyses the electron multiplier voltage was raised by 300 V after the elution of lathosterol to increase the sensitivity of detection for lanosterol, dihydrolanosterol, methylsterols, dimethylsterols and plant sterols. The internal standard epicoprostanol was monitored at m/z 370. […] Peak integration was performed manually, and sterols were quantified from SIM analyses against the internal standard. Unless stated otherwise, MAS amounts are given as a percentage of the control.

HepG2 cells = assay: Accumulation of cholesterol precursors / C29-sterols (MAS) in HepG2 cells, GC/MS (SIM); format: cell-based, Human; settings: for Dienol (m/z 486) / Enol T-MAS (m/z 484) / Trienol FF-MAS (m/z 482): Conc. 10 µM (combinations 10 + 10 µM), 12 h, n=2, ± SD; for changes in the cholesterol precursor pattern: at 10 µM, compared to potent inhibitors, data not shown
Method: Human hepatoma HepG2 cells were cultured to confluency in 60-mm dishes in phenol-red-free Dulbecco's modified Eagle's medium (DMEM) containing Pen-Strep (100 µg/ml), glucose (10 mM), sodium bicarbonate (45 mM) and glutamine (4 mM) supplemented with 10% fetal calf serum as described previously (24). At the beginning of the experiment the medium was changed to serum-free DMEM supplemented with 10% lipid-free "controlled process serum replacement" (CPSR-1). Compounds were added from ethanolic stock solutions to produce final ethanol concentrations of 0.1-0.3% v/v. Controls received the same amount of ethanol. Aminotriazole was added in an aqueous solution. Slices of rat testis (25 µm; 25-50 mg wet weight) were incubated under the same conditions in a shaking water bath (37°C). For isotopomer spectral analysis (ISA) of lathosterol, 1-^13C-acetate was added in an aqueous solution to a final concentration of 1 mM.
as §1, §2

[1] = HepG2 cells, bile acids 160 µM, 12-h, n=3, mean ± SD, ratio to internal standard epicoprostanol

Compound: C[C@H](CCC(=O)O)[C@H]1CC[C@H]2[C@@H]3[C@@H](O)C[C@@H]4C[C@H](O)CC[C@]4(C)[C@H]3CC[C@]12C [UDCA, Ursodeoxycholic acid]
- FF-MAS Dimethylst.-trien (482 m/z) (liver slices): 204 % of control
- Methylst.-dien (470 m/z) (liver slices): 235 % of control
- T-MAS Dimethylst.-dien (484 m/z) (liver slices): 633 % of control
- FF-MAS Dimethylst.-trien (482 m/z) (HepG2 cells; [1]): 309 ± 51 % of control
- Methylst.-dien (470 m/z) (HepG2 cells; [1]): 509 ± 19 % of control
- T-MAS Dimethylst.-dien (484 m/z) (HepG2 cells; [1]): 655 ± 84 % of control

Compound: COc1ccc(CCN(C)CCCC(C#N)(c2ccc(OC)c(OC)c2)C(C)C)cc1OC (centres unmarked) [Verapamil]
- Dienol (m/z 486) (HepG2 cells; HepG2 cells): 18 ± 4 % of control
- Enol T-MAS (m/z 484) (HepG2 cells; HepG2 cells): 416 ± 79 % of control
- Trienol FF-MAS (m/z 482) (HepG2 cells; HepG2 cells): 498 ± 103 % of control

Compound: C[C@]12CCC(=O)C=C1CC[C@@H]1[C@@H]2CC[C@]2(C)C(=O)CC[C@@H]12 [androstenedione, 4-Androsten-3,17-dione]
- changes in the cholesterol precursor pattern (HepG2 cells; HepG2 cells): only minor changes

Compound: C[C@]12CC[C@H](O)CC1=CC[C@@H]1[C@@H]2CC[C@]2(C)C(=O)CC[C@@H]12 [dehydroepiandrosterone]
- changes in the cholesterol precursor pattern (HepG2 cells; HepG2 cells): only minor changes

Compound: C[C@]12CC[C@H]3[C@@H](CCC4=CC(=O)CC[C@@]43C)[C@@H]1CC[C@@H]2O [testosterone, Testosterone]
- changes in the cholesterol precursor pattern (HepG2 cells; HepG2 cells): only minor changes

Compound: C[C@]12CC[C@@H]3c4ccc(O)cc4CC[C@H]3[C@@H]1CC[C@@H]2O [β-estradiol, 17β-Estradiol]
- changes in the cholesterol precursor pattern (HepG2 cells; HepG2 cells): only minor changes
- effect on the accumulation of cholesterol precursors observed with progesterone alone (HepG2 cells; β-estradiol 10 µM in combination with progesterone 10 µM): did not alter

Compound: Medroxyprogesterone
- Dienol (m/z 486) (HepG2 cells; HepG2 cells): 509 ± 50 % of control
- Enol T-MAS (m/z 484) (HepG2 cells; HepG2 cells): 1181 ± 90 % of control
- Trienol FF-MAS (m/z 482) (HepG2 cells; HepG2 cells): 227 ± 11 % of control
